Results on nine compounds are retold here after patent US12351819B2, “Method for removing undifferentiated pluripotent stem cells” (priority 2017, dated 2025).

The subject of series [1] is H9 hESC-MSCs. The note with it: 2.5 μM, 24 hours. As to the method:
(§1) The supernatants of cells treated with digoxin […], lanatoside C 2.5 μm, or DMSO solvent control for 24 hours were harvested. The released LDH was measured using CytoTox 96 […] assay according to the manufacture's instruction (Promega, Southampton, UK). The supernatants and reagents were incubated at room temperature for 20 minutes and then the reaction was stopped by Stop Solution. The absorbance at 490 nm was measured using a plate-reading spectrophotometer (Benchmark Plus Microplate Spectrophotometer System, BIO-RAD, CA, USA).
According to the report from Dr. Xu and colleagues^30, hESCs were cultured with 10 ng/ml BMP4 and 1 μM of A8301 for 5 days. Next, the cells were passaged on the gelatin-coated plate and the culture medium was switched to MSC culture medium [Minimum Essential Medium Eagle Alpha Modification (αMEM) medium supplemented with 20% fetal bovine serum (FBS), 1-glutamine (Gluta-MAX), 1× nonessential amino acids]. Cells were expanded within passage 5, and CD73^+ (11-0793, ThermoFisher Scientific) and CD105^+ (12-1057, ThermoFisher Scientific) double positive cells were sorted.
hESC-derived MSCs were trypsinized and washed with PBS. Then cells were incubated with anti-human CD73 FITC (ThermoFisher Scientific) and anti-human CD105 PE (ThermoFisher Scientific) for 15 minutes at 4° C. Cells were washed cells with PBS for three times. CD73^+/CD105^+ cells were sorted with the cell sorter (BD FACSAria II, BD Biosciences). Sorted cells were maintained in MSC culture medium.

The subject of series [2] is hiPSCs. Particulars: Table 1; hiPSCs. As to the method:
as §1
hiPSC-derived endothelial cells were prepared according in a previous report^34. The hiPSCs were maintained in mTeSR 1 medium ([…] Technologies, Vancouver, Canada) on VTN-N coated plates (Thermo, Wilmington, DE, USA). First, for the stepwise induction of differentiation, we performed a mesoderm induction of hiPSCs seeded in mesoderm induction medium for 48 hours (basal medium with […], […], and 2 ng/ml of Activin A; basal medium was composed of 12 g/L of DMEM/F-12, 3.56 g/L of HEPES, 1.742 g/L of sodium bicarbonate, 14 μg/L of sodium selenite, 10.7 mg/L of recombinant transferrin, 19.4 mg/L of recombinant insulin, and 64 mg/L of L-Ascorbic acid 2-phosphate sesquimagnesium salt hydrate). Second, for the mesoderm to endothelium transition, mesoderm cells were reseeded in vasculogenic medium (basal medium with 2 mg/ml of PVA plus 20 ng/ml of hVEGF-A) for an additional 72 hours. All differentiated cells were plated on VTN pre-coated culture plate dishes. The endothelial cells were analyzed on day 5 by flow cytometry staining with the CD31 (PECAM1, ThermoFisher Scientific, Wilmington, DE, USA) and CD144 (CDH5, ThermoFisher Scientific) antibodies.

Series [3] has as its system hESC-hepatocyte endoderm cells. Nature of the series: LDH cytotoxicity assay in hESC-derived hepatocyte endoderm. The format is cell-based, human. The note with it: Table 1. As to the method: This protocol followed a method previously published in Nature Protocols^36. The hESCs were detached by 0.5 mM EDTA (Life Technologies, Camarillo, C, USA), seeded on VTN-N coated culture plates (Corning) and maintained for 48 hours in mTeSR 1 medium. Then, the medium was refreshed daily for all following steps. On days 1-2, the medium was replaced with fresh CDM-PVA (consisting of 0.5 g of PVA (Sigma) dissolved in 250 ml of IMDM/F-12, GlutaMAX (Invitrogen), 250 ml of IMDM (Invitrogen), 5 ml of chemically defined lipid concentrate (Invitrogen), 20 of thioglycerol 97% (Sigma), 350 of insulin (10 mg/ml; Roche), 250 of transferrin (30 mg/ml; Roche) plus Activin A (100 ng/ml; R&D), bFGF (80 ng/ml; R&D), BMP4 (10 ng/ml; R&D), and […] of LY-294002 (Promega). On day 3, the cells were differentiated in RPMI Medium supplemented with Activin A (100 ng/ml) and bFGF (80 ng/ml). On days 4-6, the cells were expanded in RPMI medium supplemented with Activin A (50 ng/ml). On day 7, the cells were passaged and re-plated 105,000 cells/cm^2 cells in VTN-N coated culture plates in RPMI containing Activin A (50 ng/ml) and Y-27632 2HCl (10 μM Selleck-chem, Houston, TX, USA and Munich, Germany). Then, the cells were maintained in RPMI+Activin A (50 ng/ml) on days 8-11. The cells were differentiated into the hepatocyte endoderm and analyzed following the drug treatments. The expression of alpha-fetoprotein (A0008, Dako, Santa Clara, CA, USA) was analyzed in the hepatocyte endoderm via immunofluorescence staining.

Series [4] relates to hESCs (H9). The note with it: for cytotoxic effect (LDH release) in hESCs: 2.5 μM, 24 hours, vs DMSO; for LDH assay positive, hESCs: Table 1. How it is done:
The hESC line H9 was purchased from WiCells (Madison, WI, USA)^27. Another hESC line, HUES6, was kindly provided by Dr. Douglas A. Melton (Harvard University, Boston, MA, USA)^28. Cells were maintained on the feeder cells and cultured in Dulbecco's modified Eagle's medium (DMEM)/F12 supplemented with 20% knockout serum replacement, 2 mM L-glutamine, 1% nonessential amino acids, 4 ng/mL human bFGF, and 0.1 mM 2-mercaptoethanol. For the feeder cells culture, C57BL/6 mouse embryonic fibroblasts (MEF) were cultured in the DMEM with 10% FBS and treated cells with 0.01 mg/ml mitomycin C 2-6 hours for inactivation. For the feeder-free culture, hESCs were seeded on the Matrigel Matrix (BD Biosciences, San Jose, CA, USA) coated culture plates and maintained by conditioned medium of MEF (C57BL/6). hBMMSCs were cultured in mesenPRO RS™ kit (Life Technologies, Camarillo, CA, USA). All cells were cultured in a humidified atmosphere containing 5% CO2 at 37° C.
as §1

For series [5], the system named is hESCs. As to the kind of experiment: Alamar blue assay, hESCs. Particulars: FIG. 12. The format is cell-based, human. How it is done: Alamar blue assay measured the relative cell number. In the cells, we added 1/10 of Alamar Blue Viability Assay reagent to the total volume of the mixture (Biotium; Fremont, CA, USA). The cells were incubated overnight at 37° C. The resulted were quantified by the measurement of optical density (OD) absorbance values at 570 nm and 600 nm, and the relative cell number was calculated.

In series [6] the test system is PERK/AT4/DDIT3 pathway. The note with it: through the PERK/AT4/DDIT3 pathway; literature; cited from earlier work.
Series [7] deals with hPSCs teratoma formation. Particulars: background, literature; cited from earlier work.
Series [8] has as its system hPSCs. Particulars: background, literature; cited from earlier work.

Consider `C[C@]12CC[C@H](O)C[C@H]1CC[C@@H]1[C@@H]2CC[C@]2(C)[C@@H](c3ccc(=O)oc3)CC[C@]12O` [Bufalin, bufalin], for which, in series [1], the “cytotoxicity (LDH release) in H9 hESC-MSCs” value is given as “do not induce cytotoxicity”. Further, the “LDH assay positive, hiPSCs” value in series [2] was “+++ (more than 70% positive cells)”. In addition, in series [3], the “LDH assay positive, hepatocyte endoderm cells” value is on record as “−/+ (10% positive cells)”. In addition, in series [4], the “cytotoxic effect (LDH release) in hESCs” value is given as “induced cytotoxicity” and the “LDH assay positive, hESCs” value is recorded as “+++ (more than 70% positive cells)”.

Take `C[C@]12CC[C@H](O)C[C@H]1CC[C@@H]1[C@@H]2CC[C@]2(C)[C@@H](C3=CC(=O)OC3)CC[C@]12O` [Digitoxigenin, digitoxigenin]: the “cell death in hESCs (Alamar blue, relative cell number)” value in series [5] is given as “dose dependent manner”. The “LDH assay positive, hiPSCs” value in series [2] was “+++ (more than 70% positive cells)”. The “LDH assay positive, hepatocyte endoderm cells” value in series [3] is reported as “−/+ (10% positive cells)”. Moreover, the “LDH assay positive, hESCs” value in series [4] is “+++ (more than 70% positive cells)”.

Take `C[C@H]1O[C@@H](O[C@H]2[C@@H](O)C[C@H](O[C@H]3[C@@H](O)C[C@H](O[C@H]4CC[C@@]5(C)[C@H](CC[C@@H]6[C@@H]5CC[C@]5(C)[C@@H](C7=CC(=O)OC7)CC[C@]65O)C4)O[C@@H]3C)O[C@@H]2C)C[C@H](O)[C@@H]1O` [Digitoxin, digitoxin]: the “cell death in hESCs (Alamar blue, relative cell number)” value in series [5] is recorded as “dose dependent manner”. Moreover, in series [2], the “LDH assay positive, hiPSCs” value is on record as “+++ (more than 70% positive cells)”. For the same compound, the “LDH assay positive, hepatocyte endoderm cells” value in series [3] was “−/+ (10% positive cells)”. Further, the “LDH assay positive, hESCs” value in series [4] is recorded as “+++ (more than 70% positive cells)”.

In the case of `CCCCCCCCC(=O)NCc1ccccc1` [JC011], the ER stress result in series [6] is listed as “induced ER stress”.

Regarding `C[C@@H]1O[C@@H](O[C@H]2C[C@@H](O)[C@]3(CO)[C@H]4[C@H](O)C[C@]5(C)[C@@H](C6=CC(=O)OC6)CC[C@]5(O)[C@@H]4CC[C@]3(O)C2)[C@H](O)[C@H](O)[C@H]1O` [Ouabain, ouabain], the “cell death in hESCs (Alamar blue, relative cell number)” value in series [5] is listed as “dose dependent manner”. Further, in series [2], the “LDH assay positive, hiPSCs” value is on record as “+++ (more than 70% positive cells)”. Also, the “LDH assay positive, hepatocyte endoderm cells” value in series [3] is reported as “−/+ (10% positive cells)”. Also, the “LDH assay positive, hESCs” value in series [4] is given as “+++ (more than 70% positive cells)”.

`O=C(NNc1ccccc1)c1ccncc1` [PluriSin #1]: the “teratoma formation in hPSCs” value in series [7] is reported as “prevented teratoma formation”.

On to `C[C@@H]1O[C@@H](O[C@@H]2C=C3CC[C@@H]4[C@H](CC[C@]5(C)[C@@H](c6ccc(=O)oc6)CC[C@]45O)[C@@]3(C)CC2)[C@H](O)[C@H](O)[C@H]1O` [Proscillaridin A, proscillaridin A], for which the “cytotoxicity (LDH release) in H9 hESC-MSCs” value in series [1] is reported as “do not induce cytotoxicity”. Also, the “cell death in hESCs (Alamar blue, relative cell number)” value in series [5] is “dose dependent manner”. In addition, in series [2], the “LDH assay positive, hiPSCs” value is recorded as “+++ (more than 70% positive cells)”. Besides, the “LDH assay positive, hepatocyte endoderm cells” value in series [3] is on record as “−/+ (10% positive cells)”. In series [4], the “cytotoxic effect (LDH release) in hESCs” value was “induced cytotoxicity” and the “LDH assay positive, hESCs” value is recorded as “+++ (more than 70% positive cells)”.

Regarding `COCCn1c2c([n+](Cc3cnccn3)c1C)C(=O)c1ccccc1C2=O` [YM155], the selective cell death result in series [8] is “induced selective cell death”. Also, the “teratoma formation in hPSCs” value in series [7] is “efficiently inhibited teratoma formation”.

On to `O=c1c(O)c(-c2ccc(O)c(O)c2)oc2cc(O)cc(O)c12` [quercetin], for which, in series [8], the selective cell death result is recorded as “induced selective cell death”. Further, the “teratoma formation in hPSCs” value in series [7] is “efficiently inhibited teratoma formation”.
